Assay results reported in article PMC3125149, “SCYX-7158, an Orally-Active Benzoxaborole for the Treatment of Stage 2 Human African Trypanosomiasis” (PLoS Neglected Tropical Diseases, 2011).

Tests used:
T. b. brucei 427 = assay: Time-kill assay (ATP content, CellTiter Glo); assay type: cell-based
Protocol: The assessment of oxaborole-mediated killing of T. b. brucei in vitro was conducted using the CellTiter Glo kit (Promega, Inc., Madison, WI) to measure trypanosome ATP content as a real-time indicator of viability. Test compounds were serially diluted from 5 to 0.01 µg/mL into white wall-clear bottom 96-well plates (Corning Inc., Lowell, MA) containing HMI-9 media. 1×10^4 trypanosomes were added to each well. At specified intervals, the CellTiter Glo reagent was added to lyse the parasites and the plates were incubated for 10 min in the dark. Luminescence was quantified using an EnVision plate reader. All determinations were done in duplicate. Time-kill parameters were determined from plots of parasite viability versus incubation time for each concentration tested.

hERG potassium channel = hERG potassium channel (Homo sapiens, UniProt Q12809); assay: hERG radioligand binding assay; conditions: at 10 µM
[1] = Pharmacokinetics in cynomolgus monkeys; assay type: in vivo, cynomolgus monkey
Protocol: The blood distribution, CNS disposition and pharmacokinetics of SCYX-7158 were evaluated in infected or non-infected rodents following intravenous or oral administration of compounds. Pharmacokinetics and bioavailability of SCYX-7158 were also evaluated in non-infected beagle dogs and cynomolgus monkeys. In-life phases of non-infected rodent studies were performed at Vivisource (Waltham, MA); studies in non-naïve cynomolgus monkeys were performed by SNBL USA (Everett, WA). Male CD-1 mice (∼25 g), male Sprague-Dawley rats (∼225 g), or male cynomolgus monkeys (∼3–5 kg) were administered test article by either bolus intravenous injection (IV) or oral gavage. Animals in the IV groups received a single 2 mg/kg IV dose. Animals received oral doses of test articles as either single or twice daily doses ranging from 8 mg/kg to 50 mg/kg. All doses were administered as clear colorless solutions in either 50% (v/v) PEG 400: 20% (v/v) ethanol: 30% (v/v) carboxymethylcellulose (0.5% w/v in sterile water for injection) or 2% (v/v) ethanol: 5% (w/v) dextrose in sterile water for injection. […] For pharmacokinetic analysis, blood samples were collected from mice via cardiac puncture under terminal anaesthesia. Serial blood samples were collected from rats via a vascular access port located in the lateral saphenous vein. Mice and rats were euthanized in a CO2 chamber before collection of terminal blood samples or brain tissue. Blood samples were collected into polypropylene tubes containing K2EDTA anticoagulant and stored on ice until centrifuged for the preparation of plasma. Plasma was stored at −70°C. Whole brains were collected following decapitation, blotted dry, placed into polypropylene containers and then immediately frozen at approximately −70°C. CSF was collected from rats via cisterna magna puncture, placed in sterile polypropylene tubes, and stored at approximately −70°C. […] Treated samples were gently mixed at room temperature for 10 min, and then centrifuged at approximately 3000×g for 15 min at 15°C. The supernatants were transferred to 96-well plates or HPLC vials for analysis by LC-MS/MS. Pharmacokinetic parameters were calculated from composite mean plasma or tissue data using non-compartmental (oral and intravenous routes) and bi-exponential (intravenous route) analyses in Microsoft Excel.

Chain of hERG potassium channel (Q12809 whole entry): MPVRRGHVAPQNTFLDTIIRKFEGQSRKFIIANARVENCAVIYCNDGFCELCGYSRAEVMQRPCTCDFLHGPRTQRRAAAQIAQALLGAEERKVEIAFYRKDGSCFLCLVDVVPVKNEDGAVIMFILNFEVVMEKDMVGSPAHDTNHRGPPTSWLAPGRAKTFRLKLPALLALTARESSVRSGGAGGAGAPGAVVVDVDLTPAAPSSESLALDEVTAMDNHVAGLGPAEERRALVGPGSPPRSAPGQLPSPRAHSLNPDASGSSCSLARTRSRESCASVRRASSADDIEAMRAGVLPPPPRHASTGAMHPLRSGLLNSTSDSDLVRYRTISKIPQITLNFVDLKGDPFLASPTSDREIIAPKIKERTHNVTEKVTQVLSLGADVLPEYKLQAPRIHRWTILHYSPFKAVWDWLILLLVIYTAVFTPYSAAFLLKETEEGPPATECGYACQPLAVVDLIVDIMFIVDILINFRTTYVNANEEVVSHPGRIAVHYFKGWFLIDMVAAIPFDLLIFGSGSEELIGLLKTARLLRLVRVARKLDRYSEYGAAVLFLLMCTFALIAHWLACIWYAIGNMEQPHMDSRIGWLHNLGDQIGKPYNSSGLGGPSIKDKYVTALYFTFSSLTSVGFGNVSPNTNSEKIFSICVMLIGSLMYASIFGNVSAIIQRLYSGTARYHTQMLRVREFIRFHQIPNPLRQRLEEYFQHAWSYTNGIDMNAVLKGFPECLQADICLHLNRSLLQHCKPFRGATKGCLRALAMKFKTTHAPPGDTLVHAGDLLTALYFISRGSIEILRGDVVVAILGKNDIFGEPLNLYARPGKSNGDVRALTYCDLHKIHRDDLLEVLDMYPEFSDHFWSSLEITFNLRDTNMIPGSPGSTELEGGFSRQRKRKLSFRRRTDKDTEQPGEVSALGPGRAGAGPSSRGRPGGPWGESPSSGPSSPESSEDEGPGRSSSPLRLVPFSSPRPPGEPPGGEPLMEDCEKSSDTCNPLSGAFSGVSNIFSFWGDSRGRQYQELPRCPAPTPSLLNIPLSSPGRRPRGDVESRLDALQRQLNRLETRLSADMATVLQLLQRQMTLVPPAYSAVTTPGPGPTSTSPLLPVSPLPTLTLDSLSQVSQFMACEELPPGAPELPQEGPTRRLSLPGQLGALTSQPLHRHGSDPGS

CC1(C)OB(O)c2cc(NC(=O)c3ccc(F)cc3C(F)(F)F)ccc21 [SCYX-7158]
reduction in viability (T. b. brucei 427; within 8 h of exposure at 1.25 µg/mL (about 2 times the MIC)): greater than 50%
parasites killed (T. b. brucei 427; within 24 h of exposure, 1.25 µg/mL): > 99%
binding to hERG channel (hERG potassium channel): −6%
time of Cmax ([1]; 10 mg/kg NG, plasma): 9.5 h
Kp ([1]; male, cynomolgus monkey, CSF/plasma, at each time point, read-out: CSF concentration as % of the plasma concentration): ~0.05
AUC(0-inf) ([1]; male, cynomolgus monkey, oral, 10 mg/kg SCYX-7158 NG, plasma): 460000 ng·h/mL
Cmax ([1]; male, cynomolgus monkey, oral, 10 mg/kg SCYX-7158 nasogastric (NG), plasma): 11000 ng/mL
bioavailability ([1]; male, cynomolgus monkey, plasma, po, 10 mg/kg NG, read-out: absolute oral bioavailability): 89%
CL/F ([1]; male, cynomolgus monkey, plasma, po, 10 mg/kg NG, read-out: oral clearance (Cl/F) (converted)): 0.417 mL/min/kg
clearance ([1]; male, cynomolgus monkey, plasma, 2 mg/kg IV): 0.367 mL/min/kg
Vd ([1]; male, cynomolgus monkey, plasma, 2 mg/kg IV, read-out: Vdss): 0.656 L/kg
AUC(0-inf) ([1]; male, cynomolgus monkey, 2 mg/kg IV, plasma): 94400 ng·h/mL
AUC(0-t) ([1]; male, cynomolgus monkey, 2 mg/kg IV, plasma, read-out: AUC0–24 h): 78800 ng·h/mL
